Test results: US6399631B1, “Carbazole neuropeptide Y5 antagonists” (Pfizer Inc., priority 1999, dated 2002)

Assays:
[1] = biological target: T1, Y1 (Homo sapiens, UniProt P25929); experiment: endogenous NPY response in Bowes melanoma cell host; conditions: at 10 uM; human Bowes melanoma cell line (HMCB)
T1 sequence (P25929 1-384): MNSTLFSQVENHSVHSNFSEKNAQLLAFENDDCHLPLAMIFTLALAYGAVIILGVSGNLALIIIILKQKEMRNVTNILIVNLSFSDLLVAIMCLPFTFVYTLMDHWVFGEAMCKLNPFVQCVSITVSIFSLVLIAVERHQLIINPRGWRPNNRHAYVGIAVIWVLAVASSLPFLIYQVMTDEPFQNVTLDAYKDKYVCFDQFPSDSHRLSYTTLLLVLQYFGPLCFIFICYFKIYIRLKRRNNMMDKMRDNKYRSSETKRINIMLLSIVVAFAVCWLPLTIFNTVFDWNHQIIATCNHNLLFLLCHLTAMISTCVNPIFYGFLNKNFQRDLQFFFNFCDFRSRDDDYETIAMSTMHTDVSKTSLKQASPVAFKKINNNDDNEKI

[2] = biological target: neuropeptide Y receptor; conditions: in vitro test for neuropeptide Y receptor antagonism; cited from earlier work

| endogenous NPY response [1] | SMILES | IC50 [2] [nM] |
| --- | --- | --- |
| completely blocked | NC(N)=NCCC[C@@H](NC(=O)C(c1ccccc1)c1ccccc1)C(=O)NCc1ccc(O)cc1 [BIBP3226] |  |
|  | Cc1cc(N2CCCC2)cc(/C=C/c2cccc(C(F)(F)F)c2)n1 [(E)-2-methyl4-pyrrolidino-6-[2-(3-trifluoromethylphenyl)vinyl]pyridine] | 4.1 |
